The text below walks through data of patent publication US6727274B2, “Arylsulphonyl substituted-tetrahydro- and hexahydro-carbazoles” (Pharmacia & Upjohn Company, priority 2001, dated 2004).

In general, melting point refers to the temperature of the solid-liquid transition.

Turning to `CN[C@@H]1CCc2c(c3cc(S(=O)(=O)c4ccccc4)ccc3n2C)C1.Cl`, the melting point is greater than 275 °C.
